Assay results published in the NIST ThermoML archive (doi:10.1016/j.tca.2007.02.022).
Several values for one entry are separate records, joined by “and”; a condition that tells them apart may be missing. Equal values may be shown once. Numbers after ± are expanded uncertainties.

Assays:
[1] = Crystal
[2] = molar heat capacity at constant pressure; details: 101.33 kPa, Crystal

OC[C@@H](O)[C@H](O)[C@@H](O)CO [xylitol]
Details | Triple point temperature
[1] | 367.52 ± 5 K and 369.06 ± 0.5 K

[2]
Details | molar heat capacity at constant pressure [J/K/mol]
80 K | 63.67 ± 1.7
80.07 K | 62.71 ± 1.6
83.61 K | 65.01 ± 1.7
85 K | 66.43 ± 1.7
86.53 K | 67.25 ± 1.8
89.49 K | 69.29 ± 1.8
90 K | 69.62 ± 2.7
92.49 K | 71.54 ± 2.7
95 K | 73.13 ± 2.7
95.54 K | 73.71 ± 2.7
98.51 K | 75.94 ± 2.8
100 K | 76.86 ± 2.8
101.4 K | 78.2 ± 2.8
104.34 K | 80.53 ± 2.8
105 K | 80.73 ± 2.8
107.35 K | 82.78 ± 2.8
110 K | 84.68 ± 2.9
110.28 K | 84.97 ± 2.9
113.27 K | 87.33 ± 2.9
115 K | 88.65 ± 2.9
116.32 K | 89.39 ± 2.9
119.31 K | 91.73 ± 2.9
120 K | 92.61 ± 2.9
122.25 K | 93.79 ± 2.9
125 K | 96.54 ± 3
125.24 K | 96.15 ± 3
128.3 K | 98.38 ± 3
130 K | 100.4 ± 3
131.31 K | 100.5 ± 3
134.27 K | 102.7 ± 3
135 K | 104.2 ± 3
137.29 K | 104.8 ± 3
140 K | 108 ± 3.1
140.38 K | 106.6 ± 3.1
143.41 K | 109 ± 3.1
145 K | 111.7 ± 3.1
146.39 K | 111.2 ± 3.1
149.42 K | 113.3 ± 3.1
150 K | 115.3 ± 3.2
152.51 K | 115.5 ± 3.2
155 K | 118.9 ± 3.2
155.56 K | 117.7 ± 3.2
158.57 K | 119.8 ± 3.2
160 K | 122.4 ± 3.2
161.56 K | 121.9 ± 3.2
164.6 K | 123.9 ± 3.2
165 K | 126 ± 3.3
167.69 K | 126 ± 3.3
170 K | 129.5 ± 3.3
170.76 K | 129.7 ± 3.3
173.84 K | 132.3 ± 3.3
175 K | 133 ± 3.3
176.88 K | 134 ± 3.3
179.99 K | 136 ± 3.4
180 K | 136.6 ± 3.4
183.16 K | 138 ± 3.4
185 K | 140.1 ± 3.4
186.3 K | 140.4 ± 3.4
190 K | 143.7 ± 3.4
192.5 K | 144.2 ± 3.4
195 K | 147.3 ± 3.5
195.64 K | 146.3 ± 3.5
198.85 K | 148.5 ± 3.5
200 K | 151 ± 3.5
202.03 K | 150.3 ± 3.5
205 K | 154.7 ± 3.5
205.18 K | 152.4 ± 3.5
208.33 K | 155.1 ± 3.6
210 K | 158.4 ± 3.6
211.45 K | 157.1 ± 3.6
214.63 K | 159.5 ± 3.6
215 K | 162.1 ± 3.6
217.88 K | 161.4 ± 3.6
220 K | 165.9 ± 3.7
221.1 K | 163.8 ± 3.6
224.3 K | 165.8 ± 3.7
